Results filed as inconclusive are left out. Calls of active or inactive are those of the source.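 How the source made its calls: active means cytotoxic compounds whose falling curve has a midpoint dose at most twice the top valid dose; inconclusive means flat fit losing 30 to 70% signal, or poor fit; inactive means the rest.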
System: HepG2 viability, CellTiter-Glo ATP luminescence, 72 h
Experiment: HepG2 cell cytotoxicity, dose response, cytotoxicity control, CellTiter-Glo luminescence, 72 h, dry powder (AID 1053192)
Settings: not given
OCc1ccc(-c2nn(Cc3ccccc3)c3ccccc23)o1 gave an AC50 of 8.07 µM.

System: not listed separately
Experiment: as above
Settings: HepG2 viability, CellTiter-Glo ATP luminescence, 72 h; at 50 µM (top of the series)
In the case of Cc1cc(C)c(S(=O)(=O)NCCn2c(C)cc3ccccc32)c(C)c1, the activity change, negative = cytotoxicity is reported as 18.2% (inactive). With Cc1ccc(S(=O)(=O)NCc2ccc3c(c2)cc(C)n3C)cc1 the activity change, negative = cytotoxicity was -22.2% (inactive). With O=C(c1c(F)cccc1F)N(Cc1ccccc1)Cc1ccccc1 the activity change, negative = cytotoxicity was -4.81% (inactive). For O=C(O)C1CCN(c2nc(-c3ccccc3)c3cc(Br)ccc3n2)CC1, the activity change, negative = cytotoxicity was 1.7% (inactive). With Cc1cc2ccccc2n1CCNC(=O)COc1ccc2ccccc2c1 the activity change, negative = cytotoxicity was 21.7% (inactive). For CCc1cccc2c1NC1(CCCC1)CC2C (configuration not stated), the activity change, negative = cytotoxicity was -13.5% (inactive). With Cc1cc2cc(CNC(=O)Nc3ccc(Cl)c(Cl)c3)ccc2n1C the activity change, negative = cytotoxicity was -3.46% (inactive). With CNc1ccccc1C(C)(C)c1cc(-c2cccc(OC)c2)no1 the activity change, negative = cytotoxicity was -1.6% (inactive). With Cc1ccc(CSc2nc3[nH]ncc3c(=O)[nH]2)cc1 the activity change, negative = cytotoxicity was -34.4% (inactive). In the case of COc1ccc(Nc2ccccc2N)cc1, the activity change, negative = cytotoxicity is reported as 4.91% (inactive). In the case of Cc1cccc(NC(=O)NCc2ccc3c(c2)cc(C)n3C)c1, the activity change, negative = cytotoxicity is reported as -2.27% (inactive).
